How the values were obtained:
[1] = maximally tolerated dose, continuous infusion up to 14 days, subjects with symptomatic HIV infection; cited from earlier work
[2] = Maximum tolerated dose in rats
[3] = Maximum tolerated dose in monkeys
[4] = Maximum tolerated dose in dogs

dextran sulfate [listing 1 of 3 here]
toxicity of continuous intravenous infusion [1]: toxic

dextran sulfate [listing 2 of 3 here]
maximum tolerated dose (MTD) [2]: about 800 mg/kg/day

dextran sulfate [listing 3 of 3 here]
maximum tolerated dose (MTD) [3]: about 300 mg/kg/day | maximum tolerated dose (MTD) [4]: about 500 mg/kg/day

From patent US20080004236A1, “High Dose, Short Interval Use of Sulfated Polysaccharides for Treatment of Infections” (priority 2004, published 2008)
